Measured values from patent US9556170B2, “Substituted-1H-benzo[d]imidazole series compounds as lysine-specific demethylase 1 (LSD1) inhibitors” (University of Utah, priority 2013, dated 2017).

Biological target: LSD1 (Homo sapiens (Human), UniProt O60341)
Assay: LSD1 histone demethylase assay (LSD1 Inhibitor Screening Assay Kit, Cayman Chemical)
Type: biochemical
Conditions: H2O2/resorufin fluorescence readout, dimethyl K4 H3 peptide substrate
Method: Recombinant (expressed in baculovirus infected BTI insect cells) monoamine oxidase A and monoamine oxidase B (Catalog No. M7316 and M7441, respectively) were purchased from Sigma-Aldrich Co. LLC. (St. Louis, Mo.). MAO-Glo™ Assay Kit was purchased from Promega Corporation (Madison, Wis.). ATPlite™ Luminescence Assay System (e.g. Catalog No. V1401) was purchased from PerkinElmer Inc. (Waltham, Mass.).
IC50 values are determined using GraphPad Prism 5 software. The data were entered as an X-Y plot into the software as percent inhibition for each concentration of the drug. The concentration values of the drug were log transformed and the nonlinear regression was carried out using the “sigmoidal dose-response (variable slope)” option within the GraphPad software to model the data and calculate IC50 values.

IC50	Compound
0.081 µM	O=S(=O)(c1ccc2[nH]c(Nc3cc(Cl)ccc3O)nc2c1)N1CCNCC1 [Compound 3]
0.273 µM	CN1CCN(S(=O)(=O)c2ccc3[nH]c(Nc4cc(Cl)ccc4O)nc3c2)CC1 [Compound 2, 4-chloro-2-((5-((4-methylpiperazin-1-yl)sulfonyl)-1H-benzo[d]imidazol-2-yl)amino)phenol]
